This is an account of results in patent US10392348B2, “2-oxo-3,4-dihydroquinoline compounds as plant growth regulators” (Syngenta Participations AG, priority 2015, dated 2019).

Where two headings read alike, the source gives them in different places.

In assay [1] the test system is corn plants (variety NK OCTET). Put plainly: Reduced plant water use in corn (foliar spray, repeated weighing of pots). In kind it is in vivo. The settings on record: Zea mays, corn plants sprayed at 500 μM, average of 6 pots. The protocol: Compounds were tested for their effect on reducing plant water use as follows. The compounds were applied by foliar spray to 12 day old corn plants (variety NK OCTET) grown in controlled environment plant growth chambers. All compounds were applied using an emulsifiable concentrate (EC) formulation that was diluted to the desired concentrations with water containing 0.4% of the adjuvant rape seed methyl ester. Plant water use during the day was assessed by repeated weighing of the pots in which the plants were grown before and after application of the compounds at the indicated times (expressed in days after application (DAA)). The water use data before application was used to correct any differences in water use arising due to non-treatment effects (e.g. due to differences in plant size). The untransformed water use values were subjected to an analysis of covariance, fitting the effect of treatment and using the baseline water use 1 day before application as a covariate. Application of the chemicals (0 DAA) takes place approximately between 08:00 and 09:30 a.m. WU is measured within day time (chamber light is on 06:00 to 20:00) at these timepoints: 0 DAA a.m. (10:30-12:50), 0 DAA p.m. (14:00-19:50), 1 DAA a.m. (07:30-12:50), 1 DAA p.m. (14:00-19:50), 2 DAA a.m. (07:30-12:50) and 2 DAA p.m. (14:00-19:50). The cumulative total WU (0-2.5 DAA) is calculated by summing the WU data mentioned above.

Assay [2] deals with soybean plants (variety S20-G7). Put plainly: Reduced plant water use in soybean (foliar spray, repeated weighing of pots). In kind it is in vivo. To be noted: vs negative control; for change in vivo at 500 µM: Glycine max, foliar, Table B1, sprayed at 500 μM; for % WU 0 DAA AM*: 0 DAA a.m.; for % WU 0DAA PM: 0 DAA p.m.; for % WU 1DAA AM: 1 DAA a.m.; for % WU 1DAA PM: 1 DAA p.m.; for % WU 2 DAA AM: 2 DAA a.m.; for % WU 2 DAA PM: 2 DAA p.m. On the procedure:
Compounds were tested for their effect on reducing plant water use as follows. Each compound was dissolved in a blank emulsifiable concentrate (EC) formulation that was then diluted to the desired concentration with water containing additional surfactant (EXTRAVON 1 g/20 L). The compounds were applied by foliar spray to 12 day old soybean plants (variety S20-G7) grown in controlled environment plant growth chambers. Plant water use during the day was assessed by repeated weighing of the pots in which the plants were grown before and after application of the compounds at the indicated times (expressed in days after application (DAA)). The water use data before application was used to correct any differences in water use arising due to non-treatment effects (e.g. due to differences in plant size). The untransformed water use values were subjected to an analysis of covariance, fitting the effect of treatment and using the baseline water use 1 day before application as a covariate.
The results are expressed compared to negative control treatment (diluted EC formulation without active ingredient but with EXTRAVON 1 g/20 L).
Application of the chemicals (0 DAA) takes place approximately between 08:00 and 09:30 a.m. WU is measured within day time (chamber light is on 06:00 to 20:00) at these timepoints: 0 DAA a.m. (10:30-12:50), 0 DAA p.m. (14:00-19:50), 1 DAA a.m. (7:30-12:50), 1 DAA p.m. (14:00-19:50), 2 DAA a.m. (07:30-12:50) and 2 DAA p.m. (14:00-19:50). The cumulative total WU (0-2.5 DAA) is calculated by summing the WU data mentioned above.

Where [3] appears, read: 0 h, water use during day time vs negative control, 0 DAA a.m. (10:30-12:50), read-out: % WU 0 DAA AM.
The mark [4] stands for this setting: 0 h, water use during day time vs negative control, 0 DAA p.m. (14:00-19:50), read-out: % WU 0DAA PM.
Where [5] appears, read: 24 h, water use during day time vs negative control, 1 DAA a.m. (07:30-12:50), read-out: % WU 1DAA AM.
Where [6] appears, read: 24 h, water use during day time vs negative control, 1 DAA p.m. (14:00-19:50), read-out: % WU 1DAA PM.
Where [7] appears, read: 48 h, water use during day time vs negative control, 2 DAA a.m. (07:30-12:50), read-out: % WU 2 DAA AM.
The mark [8] stands for this setting: 48 h, water use during day time vs negative control, 2 DAA p.m. (14:00-19:50), read-out: % WU 2 DAA PM.
Setting [9] is: 60 h, cumulative total water use 0-2.5 DAA (sum of the time points) vs negative control, read-out: % WU Total 0 to 2.5 DAA.
Where [10] appears, read: 0 h, 0 DAA a.m. (10:30-12:50), read-out: % WU 0 DAA AM.
[11] abbreviates: 24 h, 1 DAA a.m. (7:30-12:50), read-out: % WU 1DAA AM.
[12] abbreviates: 24 h, 1 DAA p.m. (14:00-19:50), read-out: % WU 1DAA PM.
The mark [13] stands for this setting: 48 h, 2 DAA a.m. (07:30-12:50), read-out: % WU 2 DAA AM.
Where [14] appears, read: 48 h, 2 DAA p.m. (14:00-19:50), read-out: % WU 2 DAA PM.
The mark [15] stands for this setting: 60 h, cumulative total WU (0-2.5 DAA), read-out: % WU Total 0 to 2.5 DAA.

Take `CCCN1C(=O)CCc2cc(CNS(=O)(=O)/C=C/c3ccccc3F)ccc21` [Compound 3.056, (E)-2-(2-fluorophenyl)-N-[(2-oxo-1-propyl-3,4-dihydroquinolin-6-yl)methyl]ethenesulfonamide]: the change in vivo at 500 µM was -8.4% in assay [1] (setting [3]); -2.7% in assay [1] (setting [4]); -5.6% in assay [1] (setting [5]); -4.4% in assay [1] (setting [6]); -4.7% in assay [1] (setting [7]); -3.2% in assay [1] (setting [8]). The change in vivo at 500 µM in assay [1] (setting [9]) was -4.6%.
Turning to `CCCN1C(=O)CCc2cc(CNS(=O)(=O)CCC)ccc21` [Compound 3.062, N-[(2-oxo-1-propyl-3,4-dihydroquinolin-6-yl)methyl]propane-1-sulfonamide], the change in vivo at 500 µM was -17.8% in assay [1] (setting [3]); -13% in assay [1] (setting [4]); -13% in assay [1] (setting [5]); -9.8% in assay [1] (setting [6]); -8.1% in assay [1] (setting [7]); -6.3% in assay [1] (setting [8]). Also, in assay [1] (setting [9]), the change in vivo at 500 µM was -10.5%.
As to `C/C=C/CS(=O)(=O)NCc1ccc2c(c1)CCC(=O)N2CCC` [Compound 3.066, (E)-N-[(2-oxo-1-propyl-3,4-dihydroquinolin-6-yl)methyl]but-2-ene-1-sulfonamide], the change in vivo at 500 µM in assay [1] (setting [3]) was -10.8%; in assay [1] (setting [4]), -7.1%; in assay [1] (setting [5]), -7.1%; in assay [1] (setting [6]), -6.8%; in assay [1] (setting [7]), -4.7%; in assay [1] (setting [8]), -5.5%. The change in vivo at 500 µM in assay [1] (setting [9]) was -6.4%.
With `C=CCS(=O)(=O)NCc1ccc2c(c1)CCC(=O)N2CCC` [Compound 3.071, N-[(2-oxo-1-propyl-3,4-dihydroquinolin-6-yl)methyl]prop-2-ene-1-sulfonamide], the change in vivo at 500 µM was -11.2% in assay [1] (setting [3]); -6.5% in assay [1] (setting [4]); -4.5% in assay [1] (setting [5]); -4.7% in assay [1] (setting [6]); -3.5% in assay [1] (setting [7]); -2.4% in assay [1] (setting [8]). In addition, the change in vivo at 500 µM in assay [1] (setting [9]) was -4.9%.
As for `CCCN1C(=O)CCc2cc(C3(NS(=O)(=O)c4ccc(F)cc4)CC3)ccc21` [Compound 15.009, 4-fluoro-N-[1-(2-oxo-1-propyl-3,4-dihydroquinolin-6-yl)cyclopropyl]benzenesulfonamide], the change in vivo at 500 µM is -10.7% in assay [1] (setting [3]); -7.8% in assay [1] (setting [4]); -8.7% in assay [1] (setting [5]); -5.8% in assay [1] (setting [6]); -5.4% in assay [1] (setting [7]); -5.7% in assay [1] (setting [8]). In addition, the change in vivo at 500 µM in assay [1] (setting [9]) was -7.1%.
As to `CC1CC(=O)N(CC2CC2)c2ccc(CNS(=O)(=O)c3ccccc3)cc21` (centres unmarked) [Compound 24.001, N-[[1-(cyclopropylmethyl)-4-methyl-2-oxo-3,4-dihydroquinolin-6-yl]methyl]benzenesulfonamide], the change in vivo at 500 µM in assay [2] (setting [10]) was -35.3%; in assay [2] (setting [11]) it was -42.8%; in assay [2] (setting [12]), -42.8%; in assay [2] (setting [13]), -39.9%; in assay [2] (setting [14]), -38.3%; in assay [2] (setting [15]), -40.6%.
With `C=CCN1C(=O)CC(C)c2cc(CNS(=O)(=O)c3ccccc3)ccc21` (centres unmarked) [Compound 25.001, N-[(1-allyl-4-methyl-2-oxo-3,4-dihydroquinolin-6-yl)methyl]benzenesulfonamide], the change in vivo at 500 µM in assay [2] (setting [10]) is -28.2%; in assay [2] (setting [11]), -41%; in assay [2] (setting [12]) it was -39.6%; in assay [2] (setting [13]), -38.1%; in assay [2] (setting [14]) it was -36.7%; in assay [2] (setting [15]), -37.9%.
For `CCCN1C(=O)CCc2cc(NS(=O)(=O)Cc3ccc(C)cc3)ccc21` [Quinabactin, quinabactin, reference compound], in assay [2] (Table B2, rate 31.25 uM), the “% WU 0 DAA AM*” value is given as −0.3%, the “% WU 0DAA PM” value is given as −0.3%, the “% WU 1DAA AM” value is on record as 0.2% and the “% WU 1DAA PM” value is recorded as −0.1%. Besides, in assay [2] (Table B2, rate 31.25 uM), the “% WU 2 DAA AM” value is recorded as −0.9% and the “% WU 2 DAA PM” value is reported as −1.3%. The “% WU Total 0 to 2.5 DAA” value in assay [2] (Table B2, rate 31.25 uM, cumulative total WU (0-2.5 DAA)) was −0.7%. In addition, in assay [2] (Table B2, rate 125 uM), the “% WU 0 DAA AM*” value is given as −15.3%, the “% WU 0DAA PM” value is recorded as −5.7%, the “% WU 1DAA AM” value is 1.8% and the “% WU 1DAA PM” value worked out at 2.9%. Moreover, in assay [2] (Table B2, rate 125 uM), the “% WU 2 DAA AM” value was 2.4% and the “% WU 2 DAA PM” value was found to be 1.1%. Besides, the “% WU Total 0 to 2.5 DAA” value in assay [2] (Table B2, rate 125 uM, cumulative total WU (0-2.5 DAA)) is reported as −0.5%. In addition, in assay [2] (Table B2, rate 500 uM), the “% WU 0 DAA AM*” value is −42.0%, the “% WU 0DAA PM” value is on record as −41.2%, the “% WU 1DAA AM” value is listed as −18.6% and the “% WU 1DAA PM” value was −10.8%. In assay [2] (Table B2, rate 500 uM), the “% WU 2 DAA AM” value was −3.8% and the “% WU 2 DAA PM” value was −2.9%. For the same compound, the “% WU Total 0 to 2.5 DAA” value in assay [2] (Table B2, rate 500 uM, cumulative total WU (0-2.5 DAA)) is −16.9%.
